Measurements as given in the METLIN SMRT retention time set (Domingo-Almenara et al. 2019).

Assay: gradient 5% acetonitrile 3 min, to 50% in 2 min, to 85% in 15 min, held 3 min, 100 µL/min
Conditions: column: Zorbax Extend-C18 2.1 x 50 mm; eluents: water / acetonitrile, 0.1% formic acid
Method in brief: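 Pure standards were run in mixtures of ~100 molecules by HPLC coupled to a quadrupole time-of-flight mass spectrometer. The column was a Zorbax Extend-C18 (2.1 × 50 mm, 1.8 μm) at 100 μL/min, with water and acetonitrile each containing 0.1% formic acid, in positive and negative ionization mode. Dead and dwell volumes were 40 μL and 900 μL. Retention time was taken from computationally picked adduct peaks, each manually inspected, with data collected over 3 months.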

RP-LC retention time	Structure (SMILES)
905 s	Cc1ccccc1CN1C(=O)CN(S(=O)(=O)c2ccccc2)CC1(C)C(=O)NCc1ccccc1 (stereo not given)
586 s	CC(C)CN(C1CCN(C)CC1)C1CN(C(=O)c2cccs2)C1
745 s	CN(C)c1ccc(-c2nc3cnccn3c2Nc2ccccc2)cc1
1220 s	CCCCn1cc(S(=O)(=O)N2CCN(c3ccc(C)cc3)CC2)c2cccnc21
831 s	O=C(NC1CCCCC1)c1ccc(CN2CCN(C3CCCC3)C(=O)C2=O)cc1
982 s	O=C(NCC1CCCO1)c1nc(-c2ccc(N3CCCC3)cc2)no1 (stereo not given)
845 s	Cc1cc(C(=O)Nc2cnc(N3CCCCC3)nc2)no1
666 s	CCCN1CCN(C(=O)CC(c2ccc(C)cc2)N2Cc3ccccc3C2=O)CC1 (stereo not given)
1110 s	Cc1ccc(-c2nc(-c3ccc(S(=O)(=O)N4CCC(C(=O)N5CCCC5)CC4)cc3)no2)cc1F
870 s	O=C(CCc1nc(CSc2nnc(-c3ccccc3)o2)no1)Nc1ccccc1F
1050 s	CCOc1cccc(CNC(=O)c2sc3ncccc3c2-n2cccc2)c1
890 s	CCc1cc(C2CCCN2C(=O)Nc2ccc(Cl)cc2)on1 (stereo not given)
618 s	CSc1ccc(NC(=O)Nc2c(-c3ccncc3)nc3ccccn23)cc1
814 s	CCc1ccccc1NC(=O)C1(C)Oc2cccnc2N(C)C1=O (stereo not given)
1130 s	CCC(=O)Nc1ccc(-c2nc(-c3ccc(Cl)cc3)no2)cc1
792 s	COCCCNC(=O)Cn1cnc2onc(-c3ccc(Cl)cc3)c2c1=O
699 s	CCCn1cc(CCNC(=O)Nc2c(F)cccc2F)c2cccnc21
949 s	O=S(=O)(NCC(O)C1CCCCC1)c1ccc(OC(F)(F)F)cc1 (stereo not given)
796 s	O=C(COc1ccc(Cl)cc1)Nc1nnc(Cc2cccs2)o1
624 s	COCCNC(=O)C1CCCN(C(=O)c2[nH]c(C)c(C(=O)OC)c2C)C1 (stereo not given)
738 s	CCn1ccc(NC(=O)Nc2cccc(C)c2)n1
1170 s	Cc1cc(C(=O)Nc2ccc3c(c2)OCO3)c2c(C)nn(-c3cccc(F)c3)c2n1
1030 s	CCc1ccc(-n2nc(CO)c(C(=O)NCc3ccc4c(c3)OCO4)n2)cc1

RP-LC retention time	Structure (SMILES)
1330 s	O=C(c1n[nH]c2ccccc12)N1CCCC1c1nc(-c2cccc(C(F)(F)F)c2)no1 (stereo not given)
888 s	O=C(NCCc1csc(-c2ccccc2)n1)[C@H]1CCCN1S(=O)(=O)c1cccc2nsnc12
806 s	CCN1C(=O)c2cccnc2Sc2cc(NC(=O)c3ccc(OC)cc3)ccc21
754 s	COc1ccc(C2(C(=O)N3CCN(S(=O)(=O)c4c(C)nn(C)c4C)CC3)CC2)cc1
916 s	COc1cc(-c2nnc(-c3cccc(S(=O)(=O)N4CCCC4)c3)o2)cc(OC)c1OC
821 s	O=C(NCCCc1ccccc1)C1CCN(C(=O)c2ncn3c2COC(c2ccccc2)C3)CC1 (stereo not given)
631 s	COCCNc1c(-c2ccc(F)cc2)nc2sc(C(=O)NCc3cccnc3)c(C)n12
854 s	COc1ccc(-c2nc(CSc3nc4ccccc4n4c(C)nnc34)c(C)o2)cc1
912 s	COc1ccc(C)cc1NC(=O)Cn1nc2cc(C)nc(-c3ccc(F)cc3)n2c1=O
598 s	O=C1CCN(C(=O)C2CCN(C(=O)C3CC3)CC2)CCCCCCN1
665 s	O=C(CN1C(=O)CCC1=O)NCC1(c2ccc(F)cc2)CC1
677 s	COc1ncccc1CNC(=O)COc1ccccc1
1030 s	O=C(Nc1cccc(Cl)c1)N1CCCC1c1nc(-c2ccc(F)cc2F)no1 (stereo not given)
1060 s	C1CCC(C(CC2CCCCN2)C2CCCCC2)CC1 (stereo not given)
1180 s	COc1c(C(=O)Nc2ccc3c(c2)OCO3)sc2ccc(Cl)cc12
783 s	CCN(CC)CCOc1ccc(Nc2ncc3cc(-c4c(Cl)cccc4Cl)c(=O)n(C)c3n2)cc1
1090 s	O=C(Nc1ccc(Cl)cc1F)c1cc(C2CC2)on1
582 s	CNC(=O)[C@@H]1C[C@H](Oc2cccnc2)CN1C(=O)Cn1c(=O)oc2ccccc21
717 s	COc1ccc(-c2nc3ncccn3c2NCc2ccc(Cl)cc2)cc1OC
860 s	CCCN1C(=O)c2c(C(=O)NCCc3ccccc3)ncn2CC1(C)C(=O)NC1CCCC1 (stereo not given)
700 s	CC(C)NC(=O)c1cccc2c1CCN2C(=O)C1CC1
874 s	CCc1ccc(N2C(C)=NS(=O)(=O)c3cccnc32)cc1
1110 s	CCOc1ccc(-c2nc(NC(=O)c3c(F)cccc3F)sc2C)cc1

RP-LC retention time	Structure (SMILES)
848 s	COc1ccc(C(O)Cn2ccn3nc(-c4cccs4)cc3c2=O)cc1 (stereo not given)
706 s	O=C(Nc1ccc2c(c1)OCCO2)N1CCC(Cc2nncn2-c2ccccc2)CC1
659 s	COc1ccc(C(=O)N2CCC(n3c(-c4ccoc4)nc4cccnc43)C2)cc1 (stereo not given)
670 s	CCN(CC)CCNC(=O)c1nnc(-c2ccc(S(=O)(=O)N3CCCC3)cc2)o1
682 s	O=C(Cn1ncc2c(c1=O)N(C1CC1)C(=O)CS2)NCc1ccc2c(c1)OCO2
574 s	Nc1nc(SCC(=O)c2ccc3c(c2)OCCO3)n[nH]1
894 s	CCCS(=O)(=O)N1CCC(c2nc(CCOc3ccc(F)cc3)no2)C1 (stereo not given)
897 s	CCOC(=O)c1c(S(=O)(=O)N2CCC(C(=O)Nc3ccc(F)cc3)CC2)c(C)n(CC)c1C
1070 s	CS(=O)(=O)N1CCC(C(=O)NC2CCCCCCC2)Oc2ccc(Cl)cc21 (stereo not given)
700 s	CCC(C)C(NC(=O)c1ccc(OC)cc1)C(=O)Nc1nc2ccccc2[nH]1 (stereo not given)
905 s	CCOC(=O)c1c(C)[nH]c(CCC(=O)Nc2ccc(F)cc2F)c1C
607 s	Cc1ccc(-n2ncc3c(N4CCN(C)CC4)ncnc32)cc1Cl
943 s	Cc1ccc(N2CCC(NC(=O)c3cc(F)cc(F)c3)C2=O)cc1C (stereo not given)
553 s	Cn1cc(C(=O)N2CCCC(c3nnc4n3CCN(C3CCCC3)C4)C2)cn1 (stereo not given)
770 s	O=C(CSCc1ccccc1)NCC1CCN(C(=O)Nc2ccc(F)cc2)CC1
621 s	O=C(NCCN1CCOCC1)C1CCN(Cc2cc3ccccc3n2Cc2ccccc2Cl)CC1
637 s	COCCNC(=O)Cc1ccc(NC(=O)c2ccc(Br)o2)cc1
778 s	O=C(NCCn1c(=O)n(Cc2ccc(F)cc2)c2cccnc21)c1ccc2c(c1)OCO2
571 s	Cc1nccn1C1CN(S(=O)(=O)c2cccc3cccnc23)C1
640 s	Cc1n[nH]c(C)c1S(=O)(=O)Nc1ccc(CC(=O)NCc2cccs2)cc1
1020 s	CCOc1ccccc1N1CCN(C(=O)CSc2nccnc2Oc2ccc(C)cc2)CC1
852 s	CC(C)Cn1nc(CNC(=O)c2ccco2)c2ccccc21
728 s	COCCCNC(=O)C1CCN(c2ncccc2S(=O)(=O)N2CCCCC2)CC1

RP-LC retention time	Structure (SMILES)
934 s	O=C(CSc1ncnc2c1oc1ccccc12)Nc1ccc(F)cc1F
658 s	O=C(c1cnc2sc3c(n2c1=O)CCC3)N1CCN(c2ncccn2)CC1
607 s	O=C(NCc1ccc(F)cc1Cl)c1cn2c(n1)CCCC2
676 s	COc1ccc(CC(=O)NC(C)C(=O)Nc2nc3ccccc3[nH]2)c(Cl)c1 (stereo not given)
760 s	COc1ccc(-c2cn3c(CC(=O)Nc4ccccc4)csc3n2)cc1
705 s	Cc1ccc(NC(=O)CSc2ccc(N3CCCC(C(=O)NC4CC4)C3)nn2)c(Cl)c1 (stereo not given)
861 s	COc1cccc(-n2c(=O)c3sccc3n(Cc3nc(-c4ccccc4OC)no3)c2=O)c1
753 s	COc1ccc(-c2nc3cc(C)ccn3c2NC(=O)c2ccc(Cl)cc2Cl)cc1
603 s	CN1C(=O)C2CCCCN2c2ccc(C(=O)N3CCN(c4ccccn4)CC3)cc21 (stereo not given)
682 s	CCN1CCCC1CNC(=O)c1nc(-c2oc3ccc(OC)cc3c2C)no1 (stereo not given)
868 s	Cc1cccc(N2C=C(C(=O)N3CCOCC3)S(=O)(=O)c3ccc(Cl)cc32)c1
780 s	Cc1scc2nc(C(=O)NCc3ccc(F)cc3)nc(N(C)C)c12
1040 s	O=C(Nc1nc2ccc([N+](=O)[O-])cc2s1)c1ccc(Br)s1
701 s	O=C(NC1CCN(c2cc(-c3cccs3)[nH]n2)C1)c1ccccc1Cl (stereo not given)
781 s	CCSc1ccccc1C(=O)Nc1cc(C(C)(C)C)nn1CCO
798 s	O=C1CN(c2ccccc2NC(=O)c2cc(-c3ccccc3)on2)CCN1
575 s	O=C(O)c1cccnc1N1CCCCC1
890 s	Cc1ccn2c(Nc3ccccc3C)c(-c3cccc(Cl)c3)nc2c1
923 s	CC(C)CCNC(=O)C1CCN(S(C)(=O)=O)c2cc(Cl)ccc2O1 (stereo not given)
630 s	Cn1c(CNC(=O)C2(Cc3ccccc3)CCCCC(=O)N2)nc2ccccc21 (stereo not given)
681 s	O=C(Nc1cnc(-c2cccnc2)nc1)C1CCCCC1
